Laboratory results as given in the supplement of paper PMC13380429.
± gives the standard deviation of the averaged measurements.

Assays:
Settings in all cases: 72 h
Caco-2 [1] = experiment: cell viability relative to DMSO; higher = less toxic
Calu-3 [2] = experiment: as above
HepG2 [3] = experiment: as above
Vero E6 [4] = experiment: as above
U2OS [5] = experiment: as above
Caco-2 [6] = experiment: drug sensitivity score (DSS) for viability; higher = more toxic; extreme values may be limits of the assay
Calu-3 [7] = experiment: as above
HepG2 [8] = experiment: as above
Vero E6 [9] = experiment: as above
U2OS [10] = experiment: as above
Caco-2 [11] = experiment: relative viability EC50 (midpoint between 100% and the lowest measured viability); higher = less toxic
Calu-3 [12] = experiment: as above
HepG2 [13] = experiment: as above
Vero E6 [14] = experiment: as above
U2OS [15] = experiment: as above

SMILES | cell viability (Caco-2 [1]; 1 nM) | cell viability (Caco-2 [1]; 10 nM) | cell viability (Caco-2 [1]; 100 nM) | cell viability (Caco-2 [1]; 1000 nM) | cell viability (Caco-2 [1]; 10000 nM) | cell viability (Calu-3 [2]; 1 nM) | cell viability (Calu-3 [2]; 10 nM) | cell viability (Calu-3 [2]; 100 nM) | cell viability (Calu-3 [2]; 1000 nM) | cell viability (Calu-3 [2]; 10000 nM) | cell viability (HepG2 [3]; 1 nM) | cell viability (HepG2 [3]; 10 nM) | cell viability (HepG2 [3]; 100 nM) | cell viability (HepG2 [3]; 1000 nM) | cell viability (HepG2 [3]; 10000 nM) | cell viability (Vero E6 [4]; 1 nM) | cell viability (Vero E6 [4]; 10 nM) | cell viability (Vero E6 [4]; 100 nM) | cell viability (Vero E6 [4]; 1000 nM) | cell viability (Vero E6 [4]; 10000 nM) | cell viability (U2OS [5]; 1 nM) | cell viability (U2OS [5]; 10 nM) | cell viability (U2OS [5]; 100 nM) | cell viability (U2OS [5]; 1000 nM) | cell viability (U2OS [5]; 10000 nM) | drug sensitivity score (Caco-2 [6]) | drug sensitivity score (Calu-3 [7]) | drug sensitivity score (HepG2 [8]) | drug sensitivity score (Vero E6 [9]) | drug sensitivity score (U2OS [10]) | relative viability EC50 (Caco-2 [11]) | relative viability EC50 (Calu-3 [12]) | relative viability EC50 (HepG2 [13]) | relative viability EC50 (Vero E6 [14]) | relative viability EC50 (U2OS [15])
CC(C)(O)CNc1nc(Nc2ccnc(C(F)(F)F)c2)nc(-c2cccc(C(F)(F)F)n2)n1 [enasidenib] | 94.5% | 115% | 107% | 102% | 79.3% | 96% | 106% | 103% | 87.8% | 92.7% | 106% | 96.9% | 110% | 106% | 91.7% | 98.2% | 94.2% | 97.9% | 99.6% | 101% | 101% | 104% | 99.9% | 104% | 92% | 0.5 | 0.5 | 0 | 0 | 0 | > 10 µM | > 10 µM | > 10 µM | > 10 µM | > 10 µM
CCCC(=O)O[C@]1(C(=O)CO)CC[C@H]2[C@@H]3CCC4=CC(=O)CC[C@]4(C)[C@H]3[C@@H](O)C[C@@]21C [hydrocortisone-butyrate] | 103% | 95.2% | 98.4% | 104% | 102% | 109% | 101% | 102% | 95.8% | 89.1% | 95.1% | 102% | 93.8% | 102% | 101% | 95.5% | 99% | 91.5% | 102% | 105% | 97% | 95.8% | 97.1% | 95.3% | 95.6% | 0 | 0.1 | 0 | 0 | 0 | > 10 µM | > 10 µM | > 10 µM | > 10 µM | > 10 µM
C[C@]12C=CC(=O)C=C1CC[C@@H]1[C@@H]2C(=O)C[C@@]2(C)[C@H]1CC[C@]2(O)C(=O)CO [prednisone] | 95.8% | 99.6% | 100% | 89.7% | 85.3% | 97.8% | 98.1% | 98% | 106% | 103% | 100% | 105% | 98% | 101% | 90.6% | 100% | 99.3% | 104% | 97.4% | 94.6% | 98.9% | 99.2% | 95.7% | 99.6% | 95% | 0.9 | 0 | 0 | 0 | 0 | > 10 µM | > 10 µM | > 10 µM | > 10 µM | > 10 µM
CC(=O)c1c(O)cc(C)oc1=O [dehydroacetic-acid] | 101% | 107% | 91.9% | 104% | 94.9% | 105% | 107% | 98.2% | 101% | 101% | 100% | 103% | 99.9% | 96.7% | 103% | 98% | 93.6% | 92.5% | 101% | 95.4% | 99.2% | 101% | 96.2% | 103% | 100% | 0 | 0 | 0 | 0 | 0 | > 10 µM | > 10 µM | > 10 µM | > 10 µM | > 10 µM
CC1=C(C(=O)O)N2C(=O)[C@@H](NC(=O)[C@H](N)C3=CCC=CC3)[C@H]2SC1 [cephradine] | 96.75 ± 0.92% | 100 ± 9.7% | 94.8 ± 0.85% | 98 ± 3.8% | 103 ± 14% | 92.7 ± 0.85% | 98.1 ± 5.7% | 98.3 ± 2% | 106 ± 9.1% | 89.2 ± 6% | 99.9 ± 3.4% | 94.2 ± 3.5% | 98 ± 7.6% | 102 ± 10% | 108 ± 3.1% | 95.2 ± 3% | 97 ± 3.8% | 94.5 ± 3% | 98.4 ± 4.1% | 99.2 ± 1.1% | 96.4 ± 0.99% | 99.7 ± 2.4% | 100 ± 3.5% | 103.8 ± 0.78% | 101.7 ± 0.78% | 0 | 0.15 ± 0.21 | 0 | 0 | 0 | > 10 µM | > 10 µM | > 10 µM | > 10 µM | > 10 µM
CN1[C@@H]2CC[C@H]1C[C@@H](OC(c1ccc(F)cc1)c1ccc(F)cc1)C2 [3-alpha-bis-(4-fluorophenyl)-methoxytropane] | 95.5% | 90.9% | 92.6% | 102% | 102% | 109% | 106% | 99.5% | 126% | 86.5% | 102% | 96.3% | 92% | 93.6% | 74.1% | 102% | 103% | 100% | 97.9% | 86.1% | 102% | 96.1% | 101% | 96.8% | 93.1% | 0 | 0 | 1.6 | 0.3 | 0 | > 10 µM | > 10 µM |  | > 10 µM | > 10 µM
CCc1nn(CCCN2CCN(c3cccc(Cl)c3)CC2)c(=O)n1CCOc1ccccc1 [nefazodone] | 96.4% | 95.3% | 100% | 99.8% | 86.3% | 103% | 94.6% | 96.7% | 96.3% | 96.8% | 93.2% | 91.5% | 95.7% | 97.6% | 70.8% | 95.6% | 101% | 97.5% | 102% | 96.6% | 106% | 100% | 101% | 99% | 97.4% | 0.1 | 0 | 1.6 | 0 | 0 | > 10 µM | > 10 µM |  | > 10 µM | > 10 µM
CCCS(=O)(=O)Nc1ccc(F)c(C(=O)c2c[nH]c3ncc(-c4ccc(Cl)cc4)cc23)c1F [vemurafenib] | 109% | 97.3% | 117% | 107% | 77% | 102% | 105% | 106% | 95.8% | 90.1% | 113% | 103% | 98.3% | 107% | 54.5% | 106% | 104% | 100% | 111% | 91.7% | 96.6% | 100% | 95.2% | 104% | 86.8% | 0.5 | 0 | 1.9 | 0 | 0.1 | > 10 µM | > 10 µM |  | > 10 µM | > 10 µM
N#Cc1ccc(-c2csc(NN=C3CCCC3)n2)cc1 [remodelin] | 95.5% | 99.7% | 94.8% | 103% | 76.6% | 102% | 102% | 96.3% | 116% | 93% | 105% | 97.2% | 109% | 92.3% | 73.1% | 98.3% | 103% | 102% | 99.2% | 105% | 98.3% | 102% | 99.3% | 105% | 95.5% | 0.7 | 0 | 2.2 | 0 | 0 | > 10 µM | > 10 µM |  | > 10 µM | > 10 µM
Nc1nc2c(c(N3CCNCC3)n1)CCC1=C2[C@@H]2CCCC[C@@H]2O1 | 99.3% | 95.5% | 93% | 91.5% | 103% | 104% | 105% | 101% | 106% | 96.4% | 94.8% | 105% | 109% | 102% | 54.2% | 96.3% | 93% | 93.6% | 88.5% | 90% | 102% | 100% | 99.5% | 98.8% | 101% | 0 | 0 | 2.2 | 0.1 | 0 | > 10 µM | > 10 µM |  | > 10 µM | > 10 µM
O=C(N/N=C/c1ccc(O)c(O)c1)c1cc2ccccc2cc1O [dynasore] | 98.4% | 95.8% | 101% | 104% | 92.8% | 108% | 97.5% | 104% | 103% | 97.4% |  |  |  |  |  | 103% | 98.3% | 102% | 103% | 97.2% | 95.9% | 102% | 103% | 106% | 87.9% | 0 | 0 |  | 0 | 0 | > 10 µM | > 10 µM |  | > 10 µM | > 10 µM
